Source: patent publication US20240003908A1, “POLYOL BIOMARKERS FOR CONGENITAL DISORDERS OF GLYCOSYLATION” (Mayo Foundation for Medical Education and Research, priority 2020, published 2024)
Marks after values point to notes of the source that are not given here.

Assays:
[1] = tested on: PMM enzyme; experiment: PMM enzyme activity in PMM2-CDG patient fibroblasts treated with epalrestat (spectrophotometric); assay type: cell-based, human; conditions: for Fold change 5 μM epalrestat (PMM enzyme activity) / Fold change 10 μM epalrestat (PMM enzyme activity) / Fold change 20 μM epalrestat (PMM enzyme activity): 24 hours, baseline = 1; for Highest fold change (PMM enzyme activity): at best dose; for Best dose: of 5, 10, 20 μM
Protocol: Effect of epalrestat on […] enzyme in vitro: Patient-derived and control fibroblasts (GM5381, GM5400; GM5757, GM00038, GM8680, GM01863, GM8400; Coriell Institute, Camden, NJ) were cultured in Minimum Essential Media (MEM; Gibco, Carlsbad, CA; 1 g/L glucose) supplemented with 10% Fetal Bovine Serum (FBS; Gibco), […] (P/S) and maintained in an incubator at 37° C., 5% CO2 in the presence and absence of epalrestat for 24 hours (Iyer et al., Disease Models & Mechanisms 12:11, 2019). Cells were cultured and harvested by trypsinization with 0.05% Trypsin-EDTA (Gibco). PMM and phosphomannose isomerase (MPI) activity were assayed by spectrophotometric measurements (Van Schaftingen and Jaeken, FEBS Lett 377:318-320, 1995). The effects of epalrestat (5 μM, 10 μM, or 20 μM) on PMM-deficient fibroblasts of 11 patients (P1-P6, P8, P10, P17, P19, P24) were evaluated.

[2] = tested on: ICAM-1; experiment: ICAM-1 protein (immunoblot) and mRNA (RT-qPCR) in PMM-deficient fibroblasts; assay type: cell-based, human; conditions: 10 μM epalrestat
Text: Effect of epalrestat on glycosylation biomarkers in vitro: Immunoblotting and RT-qPCR were used to measure Intercellular Adhesion Molecule 1 (ICAM-1) and Lysosomal Associated Membrane Protein 2 (LAMP-2) protein and mRNA expression levels, respectively, as cellular markers of N-glycosylation (Ferrer et al., Mol Genet Metab 131:424-429, 2020; He et al., J Biol Chem 287:18210-18217, 2012; Eskelinen, Mol Aspects Med 27:495-502, 2006; and Radenkovic et al., Mol Genet Metab 132:27-37, 2021) in 10 PMM-deficient fibroblast lines (P1-P6, P8, P17, P19, and P24) and in control fibroblasts, treated with 10 μM epalrestat (the optimal dose based on PMM enzyme activity as described above).

[3] = tested on: child with PMM2-CDG; experiment: Single patient (P1) study: clinical efficacy (ICARS, NPCRS, BMI, weight); assay type: in vivo, human
Protocol: Prospectively collected clinical and laboratory data in 24 PMM2-CDG patients: The genetic, laboratory, metabolic, and clinical data of 24 PMM2-CDG patients were evaluated (TABLES 2A and 2B). Disease severity was assessed by Nijmegen Pediatric CDG Rating Scale (NPCRS), (most severe=82; mild (0-14), moderate (15-25), severe (>26)) (Achouitar et al., J Inherit Metab Dis 34:923-927, 2011; and Martinez-Monseny et al., Ann Neurol 85:740-751, 2019). Patient P1 and twin patients P4 and P5 also were discussed elsewhere (Qian et al., JIMD Rep 56:27-33, 2020; and Jaeken et al., Ped Res 14:179, 1980). P1, enrolled in a single IND clinical trial, was additionally evaluated by the International cooperative ataxia rating scale (ICARS) (Trouillas et al., J Neurol Sci 145:205-211, 1997), which assesses limb ataxia, dysarthria, posture and gait disturbances, and oculomotor disorders (0=normal; 100=most severe). Urinary polyols including sorbitol and mannitol were analyzed by GC/MS in 23 out of the 24 PMM2-CDG patients (patient P6 was deceased). In addition, functional in vitro data was collected from the fibroblasts of P1-P6, P8, P10, P17, P19, and P24.
Study design: An open label, single patient (P1) compassionate use study was designed to assess the safety and tolerability of oral epalrestat therapy in a child with PMM2-CDG.
Patient assessment: Prior to the first dose of epalrestat and at 1, 2, 3, 6, 8, 9, 12 months during treatment, concomitant medications and vital signs were recorded and the patient was evaluated using the NPCRS. In addition, blood was drawn for serum chemistry, hematology, and plasma levels of epalrestat. Urine was collected for polyol measurement at baseline and twice over the course of 12 months of therapy.
Drug administration: Epalrestat was administered orally, 3 times per day (TID) before meals in a divided dose (0.8 mg/kg/day; 5 mg TID) of epalrestat (Ono Pharmaceuticals, Osaka, Japan) starting on Day 1 of the study.
Safety and efficacy: Safety measures included vital signs, change in CBC, liver function (INR, bilirubin, transaminases, and albumin) in blood, change in liver elastography, and following the pharmacokinetic profile of epalrestat. The efficacy of epalrestat was studied by clinical follow up (physical exam, NPCRS, ICARS), standard laboratory tests, and transferrin glycoform analysis by mass spectrometry.

## CC(/C=C1\SC(=S)N(CC(=O)O)C1=O)=C\c1ccccc1 [epalrestat]
[1]; 10 μM epalrestat, 8/10
  patient fibroblasts that responded: 80%
[1]; fibroblasts of P1, 5 μM epalrestat
  increase in PMM enzyme activity: 43%
[1]; fibroblasts of P2, 10 μM epalrestat
  increase in PMM enzyme activity: 33%
[1]; fibroblasts of P3, 10 μM epalrestat
  increase in PMM enzyme activity: 35%
[1]; fibroblasts of P4, 20 μM epalrestat
  increase in PMM enzyme activity: 50%
[1]; fibroblasts of P5, 5 μM epalrestat
  increase in PMM enzyme activity: 35%
[1]; fibroblasts of P8, 10 μM epalrestat
  increase in PMM enzyme activity: 16%
[1]; fibroblasts of P10, 5 μM epalrestat
  increase in PMM enzyme activity: 22%
[1]; fibroblasts of P17, 20 μM epalrestat
  increase in PMM enzyme activity: 10%
[1]; fibroblasts of P19, 20 μM epalrestat
  increase in PMM enzyme activity: 20%
[1]; fibroblasts of P24, 10 μM epalrestat
  increase in PMM enzyme activity: 36%
[1]; fibroblasts of subject P1, 5 μM
  Fold change 5 μM epalrestat (PMM enzyme activity): 1.43
[1]; fibroblasts of subject P1
  Fold change 10 μM epalrestat (PMM enzyme activity): 1.2
  Fold change 20 μM epalrestat (PMM enzyme activity): 1.2
  Highest fold change (PMM enzyme activity): 1.43*
  Best dose: 5 µM
[1]; fibroblasts of subject P2, 5 μM
  Fold change 5 μM epalrestat (PMM enzyme activity): 1.01
[1]; fibroblasts of subject P2
  Fold change 10 μM epalrestat (PMM enzyme activity): 1.33
  Fold change 20 μM epalrestat (PMM enzyme activity): 0.7
  Highest fold change (PMM enzyme activity): 1.33
  Best dose: 10 µM
[1]; fibroblasts of subject P3, 5 μM
  Fold change 5 μM epalrestat (PMM enzyme activity): 0.86
[1]; fibroblasts of subject P3
  Fold change 10 μM epalrestat (PMM enzyme activity): 1.35
  Fold change 20 μM epalrestat (PMM enzyme activity): 0.9
  Highest fold change (PMM enzyme activity): 1.35
  Best dose: 10 µM
[1]; fibroblasts of subject P4, 5 μM
  Fold change 5 μM epalrestat (PMM enzyme activity): 1.26
[1]; fibroblasts of subject P4
  Fold change 10 μM epalrestat (PMM enzyme activity): 1.36
  Fold change 20 μM epalrestat (PMM enzyme activity): 1.5
  Highest fold change (PMM enzyme activity): 1.36
  Best dose: 10 µM
[1]; fibroblasts of subject P5, 5 μM
  Fold change 5 μM epalrestat (PMM enzyme activity): 1.35
[1]; fibroblasts of subject P5
  Fold change 10 μM epalrestat (PMM enzyme activity): 0.93
  Fold change 20 μM epalrestat (PMM enzyme activity): 0.9
  Highest fold change (PMM enzyme activity): 1.35
  Best dose: 5 µM
[1]; fibroblasts of subject P6, 5 μM
  Fold change 5 μM epalrestat (PMM enzyme activity): 0.98
[1]; fibroblasts of subject P6
  Fold change 10 μM epalrestat (PMM enzyme activity): 0.97
  Fold change 20 μM epalrestat (PMM enzyme activity): 0.6
[1]; fibroblasts of subject P8, 5 μM
  Fold change 5 μM epalrestat (PMM enzyme activity): 1.07
[1]; fibroblasts of subject P8
  Fold change 10 μM epalrestat (PMM enzyme activity): 1.16
  Fold change 20 μM epalrestat (PMM enzyme activity): 1.1
  Highest fold change (PMM enzyme activity): 1.16
  Best dose: 10 µM
[1]; fibroblasts of subject P10, 5 μM
  Fold change 5 μM epalrestat (PMM enzyme activity): 1.22
[1]; fibroblasts of subject P10
  Fold change 10 μM epalrestat (PMM enzyme activity): 1.16
  Fold change 20 μM epalrestat (PMM enzyme activity): 1.2
  Highest fold change (PMM enzyme activity): 1.22
  Best dose: 5 µM
[1]; fibroblasts of subject P17, 5 μM
  Fold change 5 μM epalrestat (PMM enzyme activity): 0.9
[1]; fibroblasts of subject P17
  Fold change 10 μM epalrestat (PMM enzyme activity): 0.75
  Fold change 20 μM epalrestat (PMM enzyme activity): 1.1
  Highest fold change (PMM enzyme activity): 1.1
  Best dose: 20 µM
[1]; fibroblasts of subject P19, 5 μM
  Fold change 5 μM epalrestat (PMM enzyme activity): 0.84
[1]; fibroblasts of subject P19
  Fold change 10 μM epalrestat (PMM enzyme activity): 1.1
  Fold change 20 μM epalrestat (PMM enzyme activity): 1.2
  Highest fold change (PMM enzyme activity): 1.2
  Best dose: 20 µM
[1]; fibroblasts of subject P24, 5 μM
  Fold change 5 μM epalrestat (PMM enzyme activity): 0.78
[1]; fibroblasts of subject P24
  Fold change 10 μM epalrestat (PMM enzyme activity): 1.36
  Fold change 20 μM epalrestat (PMM enzyme activity): 0.9
  Highest fold change (PMM enzyme activity): 1.36
  Best dose: 10 µM
[1]; nine out of ten patients, 5 μM, 10 μM or 20 μM epalrestat
  increase in PMM enzyme activity: ≥ 10%
[1]; patient fibroblasts, with at least one of 5, 10, 20 μM
  maximal increase in PMM activity: ≤ 50%
[2]
  ICAM-1 mRNA expression: no effect
[3]; patient P1, 12-month-follow-up, previous trough 14.8 (30th percentile)
  body mass index (BMI): 18.5
[3]; patient P1, epalrestat 0.8 mg/kg/day, within 12 months, from a score of 56
  ICARS score: 42
[3]; patient P1, months 6, 9, and 12, baseline 21-24
  NPCRS score: 20-21
